Data as given in patent USRE40387E1, “Pharmaceutical compositions, dosage forms and methods for oral administration of epothilones” (Bristol-Myers Squibb Company, priority 2001, dated 2008).

assay: Caco-2 cell permeability; conditions: human, Caco-2
Method: The Pc of some model compounds, for which the bioavailability in humans is known, was also determined in the same experiment.

SMILES	Papp [×10⁻⁶ cm/s]
CC(=O)Nc1ccc(O)cc1 [acetaminophen, reference compound]	> 20
CC(C)Cc1ccc(C(C)C(=O)O)cc1 (stereo not drawn) [ibuprofen, reference compound]	> 20
O=C(O)c1ccccc1O [salicylic acid, reference compound]	> 20
